Assay results reported in US6596863B2, “Medical composition containing nitroetheneamine Derivative or salt there of as active constituent” (Ishihara Sangyo Kaisha, Ltd., priority 1998, dated 2003).

Key:
[1] = target: T1, human MMP-3 (Homo sapiens, UniProt P08254); assay: Enzyme inhibition activity against MMP-3 (stromelysin-1), fluorescent peptide substrate NFF-3; format: biochemical; conditions: human MMP-3, substrate NFF-3, 37° C. for 2 hours
T1 construct: purchased Kabushiki Kaisha Yagai Chuo Kenkyusho YU-26003
Experimental: The inhibition activity against human MMP-3 was measured using a fluorescent peptide substrate MOCAc-Arg-Pro-Lys-Pro-Val-Glu-Nva-Trp—Arg-Lys(Dnp)-NH2[NFF-3, manufactured by Peptide Institute, Inc. (No. 3168-v)] with reference to the method disclosed in a literature (Knight C. G. et al, FEBS Letters, Vol. 296, 263-266, 1992, Nagase H. et al, Journal of Biological Chemistry, Vol. 269, 20952-20957, 1994). Namely, into each well of a Fluoro Nunc plate (96C) white (No. 437842, manufactured by Nunc Co.), 180 μl of a MMP-3 solution (0.0125 unit/ml; No. YU-26003, manufactured by Kabushiki Kaisha Yagai Chuo Kenkyusho, purity: at least 99%), 10 μl of a test materials (the compound of the present invention) dissolved in DMSO and 10 μl of a peptide substrate […] (final concentration: 10 μM) were added and maintained at 37° C. for 2 hours in a dark place. Dilution of the enzyme was carried out by using 50 mM of Tris-HCl (pH 7.5) comprising 0.1M of NaCl, 10 mM of CaCl2, 0.05% Brij 35 and 0.02% of NaN3.
For the MMP-3 enzymatic activity, the amount of the decomposition product after the reaction was quantitatively analyzed as the change in the relative fluorescence intensity at a fluorescence wavelength of 400 nm with an excitation wavelength of 326 nm (using a variable fluorescence plate reader (variable wavelength type) Spectron FL-2575, manufactured by Towa Kagaku K. K.), and the inhibition activity of the test materials against the enzymatic activity was calculated by comparing the relative fluorescence intensities of the inhibitor added group and the non-added group after completion of the reaction.

[2] = target: T2, human MMP-7 (Homo sapiens, UniProt P09237); assay: Enzyme inhibition activity against MMP-7 (matrilysin), fluorescent peptide substrate NFF-2; format: biochemical; conditions: human MMP-7, substrate NFF-2, 37° C. for 2.5 hours
T2 construct: purchased Kabushiki Kaisha Yagai Chuo Kenkyusho YU-31001
T2 sequence (P09237 95-267): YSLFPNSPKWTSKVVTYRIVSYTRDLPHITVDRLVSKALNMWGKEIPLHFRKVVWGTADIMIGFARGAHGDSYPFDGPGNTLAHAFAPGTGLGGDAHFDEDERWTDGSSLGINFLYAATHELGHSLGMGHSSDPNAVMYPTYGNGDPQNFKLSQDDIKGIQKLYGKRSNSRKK
Experimental: The inhibition activity against human MMP-7 was measured by the same method as the method for MMP-3, by using a MMP-7 solution (0.025 unit/ml; No. YU-31001, manufactured by Kabushiki Kaisha Yagai Chuo Kenkyusho, purity: at least 99.9%) and a fluorescent peptide substrate MOCAc—Arg-Pro-Lys-Pro-Tyr—Ala-Nva-Trp-Met-Lys(Dnp) -NH2 [NFF-2, No. 3167-v, manufactured by Peptide Institute, Inc.]. The enzymatic reaction was carried out at 37° C. for 2.5 hours in a dark place, and the relative fluorescence intensity was measured at a fluorescence wavelength of 400 nm with an excitation wavelength of 327 nm.

T1 sequence (P08254 100-477): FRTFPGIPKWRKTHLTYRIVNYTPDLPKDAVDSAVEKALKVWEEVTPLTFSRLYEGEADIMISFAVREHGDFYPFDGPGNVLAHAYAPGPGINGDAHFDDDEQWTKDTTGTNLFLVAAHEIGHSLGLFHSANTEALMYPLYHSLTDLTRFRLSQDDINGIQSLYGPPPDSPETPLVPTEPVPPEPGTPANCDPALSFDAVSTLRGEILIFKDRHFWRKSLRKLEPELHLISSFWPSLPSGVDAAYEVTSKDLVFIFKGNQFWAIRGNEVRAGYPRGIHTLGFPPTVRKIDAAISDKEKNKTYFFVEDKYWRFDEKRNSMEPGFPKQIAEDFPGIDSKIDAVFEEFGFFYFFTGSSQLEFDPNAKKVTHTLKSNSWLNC

| Structure (SMILES) | IC50 [1] [µM] | IC50 [2] [µM] |
| --- | --- | --- |
| CCOCCOc1cc(C(F)(F)F)cc(NNC(=C[N+](=O)[O-])NC)n1 [Compound No. 107] | 22.3 | 18.7 |
| CCOCCOc1cc(C(F)(F)F)cc(NNC(=C[N+](=O)[O-])NS(C)(=O)=O)n1 [Compound No. 164, N-(1-(6-(2-ethoxyethoxy)-4-trifluoromethyl-2-pyridyl)hydrazino-2-nitroethenyl)methanesulfonamide] | 17.8 | 12 |
| CS(=O)(=O)NC(=C[N+](=O)[O-])NNc1cc(C(F)(F)F)cc(Cl)n1 [Compound No. 157, N-(1-(6-chloro-4-trifluoromethyl-2-pyridyl)hydrazino-2-nitroethenyl)methanesulfonamide] | 24.2 | 16.5 |
